Test results: patent publication US20240382463A1, “Composition Comprising HDAC Inhibitor and Immune Checkpoin Inhibitor and Methods For Using the Same” (Avstera Therapeutics Corp., priority 2023, published 2024)
Like-named read-outs stand apart in the source and are kept apart here.

Columns and labels:
[1] = system: S. typhimurium (TA98 and TA1537); assay: Ames assay (mutagenicity); type: cell-based; settings: for increase in the number of colonies: with and without S9 mix
Hepatocyte stability = type: in vitro ADME; settings: human, hepatocytes; read-out: Hepatocytes stability (t½)
[2] = system: primary human macrophages; assay: Polarization of primary human macrophages (qPCR, RNAseq); type: cell-based
Description: (§2) For qPCR, RNA was isolated by Trizol purification followed by reverse transcription using iScript™ cDNA Synthesis Kit and qPCR using iQ™ SYBR® Green Supermix (Biorad). qPCR were run on real time PCR, CFX Opus 96 (Biorad).
RNAseq libraries were prepared following the manufacturer's instructions. The feature-barcode matrices generated by the 10× Genomics CellRanger pipeline were analyzed with an SCTransform workflow (Seurat v4.3.0.1) in RStudio. Cells with greater than 10% mitochondrial counts, fewer than 100 genes detected, or with a number of counts greater than the 93rd percentile of counts were removed. Cell type recognition was performed using the reference-based scRNA-seq annotation package, SingleR. The Immunological Genome Project (ImmGen) was used as the reference dataset. The Seurat object was filtered to include the major immune cell populations present.
As a readout of polarization, changes were analyzed in the expression levels of genes associated with the M1 and M2 phenotype in human macrophages.

[3] = system: THP1 cells differentiated to macrophages; assay: THP1 macrophages, M2 polarization signalling, Western blot; type: cell-based, human
Description: (§1) Immunoblot-blot, FACs, and gPCR: For western-blot analysis cell monolayers were washed in PBS and lyzed with complete RIPA buffer containing protease, phosphatases and the HDAC inhibitor Panabinostat (10 nM). Cells were sonicated for 12 cycles at high intensity and the cell lysates were centrifuged at 12,000 rpm for 10 minutes at 4° C. to remove the cell debris. Protein quantitation on the supernatants was performed using BCA assay. Protein samples were prepared at 1 ug/uL concentration with 6× Lamelli buffer and incubated for 5 minutes at 90° C. Precast gels containing 20 μg of protein/sample were run and the gels were transferred to a PVDF membrane and stained with specific antibodies. The antibodies used for western-blot are anti-α-tubulin (mouse DM1A, Cell Signaling Tech), anti-acetyl-α-tubulin (rabbit K40, Cell Signaling Tech), anti-iNOS (rabbit polyclonal, Invitrogen), anti-Arginasel (rabbit D4E3M, Cell Signaling Tech). Anti-c-Myc (rabbit D84C12, cell Signaling Tech), anti-acetylated-c-Myc (Rabbit polyclonal Acetyl-Lys148-c-Myc, Sigma-Aldrich), anti-Stat6 (Rabbit D3H4, Cell Signaling Tech), anti-Phospho-Stat6 (Polyclonal Rabbit, Cell Signaling Tech), anti-Stat3 (Rabbit 79D7, Cell Signaling Tech), anti-Phospho-Stat3-727 (Rabbit D8C2Z, Cell Signaling Tech), anti-phospho-Stat3-705 (Rabbit D3A7, Cell Signaling Tech). […]

[4] = system: myeloid and lymphoid lymphoma cell lines; assay: c-Myc acetylation and levels in lymphoma cell lines, Western blot; type: cell-based, human
Description: as §1

SM1 melanoma tumors = assay: SM1 melanoma model, in vivo tumor growth; set-up: species or system C57BL/6 mice
Description: In vivo tumor growth: Analysis of tumor growth using the murine SM1 melanoma model were performed in accordance with IACUC guidelines at Georgetown University. Murine melanoma tumors were established by implanting 0.75×10^6 SM1 cells in the right flank area of 6-8 weeks-old female C57BL/6 mice. […] Anti-PD1 or isotype control (BE0146-CUST and BE0089-CUST, Bio X cell) were injected i.p. (15 mg/kg) in 100 ul PBS every other day. Tumor growth was monitored using electronic calipers, the length and width of detected tumors were measured every other day and tumor volumes calculated using the formula ½*length*(width)^2. The body weights of animals were recorded once a week using a portable scale to monitor general health.

CT26 colon cancer tumors = assay: CT26 colon cancer model, in vivo tumor growth; set-up: species or system Balb/c mice
Description: For the CT26 colon cancer model animal studies were performed by Adgyl Lifesciences. Mice were implanted with 0.5×10^6 CT26 cells in the right flanks of 7-8 week-old female Balb/c mice. […] Tumor volume and body weight were monitored twice weekly. Tumor dissection and single-cell suspension: Tumor single-cell suspensions were obtained by mincing the tumor tissue with scalps in petri dishes with complete media, followed by incubation of the minced tumors in a digestion solution (collagenase I, collagenase IV, hyaluronidase V, and DNase I) at 37° C. with rotation for 30-45 min. The digested solution was passed by a cell strainer to remove undigested material, centrifuged, washed and resuspended in complete media.

[5] = Plasma pharmacokinetics after oral gavage; type: in vivo, C57BL/6 mice; settings: PEG6000 formulation compared to the CMC formulation
Description: LS-MS: Plasma samples were obtained using EDTA as anticoagulant and run by Adgyl Life Sciences using a fit for purpose LC-MS/MS method. Briefly, plasma samples were run in a triple Quad 6500+LC-MS/MS System using a 50:50 (ACN:Water v/v) working solution diluent. A mobile Phase A: 2 mM Ammonium formate with 0.1% Formic acid, a mobile Phase B: Acetonitrile with 0.1% formic Acid Isocratic mode; Pump A:B: 50:50. Using a Phenomenex Phenyl-Hexyl column of Sum particle size. […] The calibration curve was generated using area ratio of analyte area: area of internal standard vs concentration and was regressed using linear regression equation and weighting of 1/x2.
The plasma pharmacokinetic parameters of SS-208 were determined from concentration time curves obtained following a single IV and oral route of administration in male C57BL/6 mice. Values are expressed as mean and n=3 mice/time point/group.
However, tumors are not completely eliminated. […] For oral gavage, CMC or PEG6000 formulations were used in fed or starved mice.

[6] = system: murine bone marrow-derived macrophages (BMDM)
Description: as §2

hERG = hERG (Homo sapiens, UniProt Q12809); assay: hERG test; settings: up to 30 μM
Chain of hERG (Q12809 whole entry): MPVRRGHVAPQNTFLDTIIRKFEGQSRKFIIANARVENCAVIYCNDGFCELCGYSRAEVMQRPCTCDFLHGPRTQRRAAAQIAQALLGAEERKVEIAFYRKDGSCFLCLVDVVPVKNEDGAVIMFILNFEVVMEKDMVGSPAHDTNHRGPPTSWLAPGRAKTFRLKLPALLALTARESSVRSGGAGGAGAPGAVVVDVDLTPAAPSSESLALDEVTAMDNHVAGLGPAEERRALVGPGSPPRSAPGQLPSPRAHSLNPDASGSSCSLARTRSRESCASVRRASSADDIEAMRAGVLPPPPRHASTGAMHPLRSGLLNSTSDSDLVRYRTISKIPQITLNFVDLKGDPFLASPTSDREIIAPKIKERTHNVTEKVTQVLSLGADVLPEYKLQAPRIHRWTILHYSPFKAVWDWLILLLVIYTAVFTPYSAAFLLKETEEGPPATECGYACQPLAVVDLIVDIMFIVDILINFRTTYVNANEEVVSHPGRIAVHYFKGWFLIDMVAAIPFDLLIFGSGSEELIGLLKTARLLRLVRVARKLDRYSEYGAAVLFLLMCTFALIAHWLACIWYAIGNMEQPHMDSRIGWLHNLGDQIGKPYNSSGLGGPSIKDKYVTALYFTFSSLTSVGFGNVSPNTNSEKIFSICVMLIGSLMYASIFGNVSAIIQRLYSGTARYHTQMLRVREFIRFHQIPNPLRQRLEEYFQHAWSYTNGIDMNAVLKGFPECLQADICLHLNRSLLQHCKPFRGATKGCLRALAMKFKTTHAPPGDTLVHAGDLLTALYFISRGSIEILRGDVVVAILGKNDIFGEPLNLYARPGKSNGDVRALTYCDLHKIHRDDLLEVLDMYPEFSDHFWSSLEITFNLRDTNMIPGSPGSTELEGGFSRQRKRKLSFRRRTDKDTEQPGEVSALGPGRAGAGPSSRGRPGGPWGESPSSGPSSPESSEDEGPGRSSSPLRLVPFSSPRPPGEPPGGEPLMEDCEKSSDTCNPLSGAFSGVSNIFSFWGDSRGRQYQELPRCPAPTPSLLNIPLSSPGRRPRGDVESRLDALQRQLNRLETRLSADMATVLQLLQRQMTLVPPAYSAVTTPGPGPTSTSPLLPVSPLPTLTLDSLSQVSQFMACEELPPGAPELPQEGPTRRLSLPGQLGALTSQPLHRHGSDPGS

[7] = GLP safety and toxicology studies; settings: rats and dogs
[8] = system: BMA31A7 murine macrophages; assay: M2 polarization of BMA31A7 macrophages, Western blot
Description: (§3) Two different cell lines were used as they are better models for polarization towards M1 and M2, respectively.

[9] = Safety pharmacology (CNS, pulmonary, cardiovascular); settings: in vivo
[10] = system: Raw264.7 murine macrophages; assay: M1 polarization of Raw264.7 macrophages, Western blot
Description: as §3

melanoma tumor models = settings: potentiates anti-PD1 therapy; tumors are not completely eliminated; cited from earlier work
HDAC6 = target: T1, HDAC6 (Homo sapiens, UniProt Q9UBN7); settings: cited from earlier work
T1 sequence (Q9UBN7 1-1215): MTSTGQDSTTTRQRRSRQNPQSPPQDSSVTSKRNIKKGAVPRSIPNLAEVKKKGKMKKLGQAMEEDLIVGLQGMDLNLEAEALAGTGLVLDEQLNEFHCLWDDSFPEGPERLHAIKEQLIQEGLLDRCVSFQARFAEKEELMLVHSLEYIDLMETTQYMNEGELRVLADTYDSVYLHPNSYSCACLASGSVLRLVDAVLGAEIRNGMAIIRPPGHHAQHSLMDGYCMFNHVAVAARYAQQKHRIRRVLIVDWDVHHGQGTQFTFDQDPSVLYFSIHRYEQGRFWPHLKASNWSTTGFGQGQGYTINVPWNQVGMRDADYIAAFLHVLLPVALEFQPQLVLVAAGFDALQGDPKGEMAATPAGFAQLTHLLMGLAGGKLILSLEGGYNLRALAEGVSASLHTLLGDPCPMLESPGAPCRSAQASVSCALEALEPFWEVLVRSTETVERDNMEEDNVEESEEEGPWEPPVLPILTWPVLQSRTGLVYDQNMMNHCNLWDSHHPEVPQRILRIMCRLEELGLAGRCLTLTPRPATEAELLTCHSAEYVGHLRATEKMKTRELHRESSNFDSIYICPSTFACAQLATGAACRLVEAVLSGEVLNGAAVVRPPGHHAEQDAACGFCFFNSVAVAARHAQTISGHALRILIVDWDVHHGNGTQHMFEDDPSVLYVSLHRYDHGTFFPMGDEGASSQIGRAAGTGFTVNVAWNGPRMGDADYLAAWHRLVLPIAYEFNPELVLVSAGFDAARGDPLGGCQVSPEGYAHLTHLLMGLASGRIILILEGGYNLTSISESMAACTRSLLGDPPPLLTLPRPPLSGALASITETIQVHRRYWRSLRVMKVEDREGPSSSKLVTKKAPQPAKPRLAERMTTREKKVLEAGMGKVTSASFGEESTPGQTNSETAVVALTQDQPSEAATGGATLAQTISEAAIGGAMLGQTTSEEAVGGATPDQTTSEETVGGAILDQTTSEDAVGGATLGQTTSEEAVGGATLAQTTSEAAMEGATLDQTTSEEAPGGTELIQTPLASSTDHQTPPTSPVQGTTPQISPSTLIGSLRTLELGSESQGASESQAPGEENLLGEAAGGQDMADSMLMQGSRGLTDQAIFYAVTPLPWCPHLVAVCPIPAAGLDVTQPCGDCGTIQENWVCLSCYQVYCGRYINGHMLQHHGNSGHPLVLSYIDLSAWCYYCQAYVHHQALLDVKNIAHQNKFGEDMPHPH

[11] = system: S. typhimurium (TA98 and TA1537); settings: cited from earlier work

O=C(NCCc1cc(C(=O)NO)no1)c1ccc(Cl)c(Cl)c1 [AVS100, 5-(2-(3,4-dichlorobenzamido)ethyl)-N-hydroxyisoxazole-3-carboxamide]
AMES test (in words) [1]: AMES-negative
Ames test (with and without S9) ([1]; TA98, TA1537): negative
increase in the number of colonies ([1]; tester strain TA98, any dose): < 2 fold
increase in the number of colonies ([1]; tester strain TA1537, any dose): < 3 fold
half-life (Hepatocyte stability): 2.25 h
genes of the RelA/NFKB transcriptional program inhibited in M1 cells ([2]; RNAseq, Trust pathway analysis): 45 genes
Cox2, Ccl5, and Socs1 induction ([2]; qPCR, M1 (IFN-γ plus LPS)): partially inhibited
M1 markers Cd64, Tnf and Ido induction ([2]; qPCR, M1 (IFN-γ plus LPS)): did not affect
induction of the M2 markers Cd209, Cd200r1, Mrc1, Tgm2, and Il10 ([2]; qPCR, M2 (IL-4)): prevented
STAT6 phosphorylation in response to IL-4 [3]: not inhibited
c-Myc levels in M0 and M2 polarized macrophages [3]: reduced
acetyl-c-Myc [4]: increased
total c-Myc levels [4]: reduced
tumor growth (SM1 melanoma tumors; 100 mg/kg, daily oral gavage, standalone): significantly reduced
tumor growth, standalone therapies (SM1 melanoma tumors; AVS100 daily oral gavage, anti-PD1 i.p.): similarly reduced
intratumoral CD4 T-cells (SM1 melanoma tumors; flow cytometry): reduction
intratumoral CD8 T-cells (SM1 melanoma tumors; flow cytometry): increase
Cluster 0, IFN-TAMs (SM1 melanoma tumors; scRNAseq of CD45+ cells): increased
central memory CD8 T-cells (CD62L+CD44+) (SM1 melanoma tumors; standalone treatment): specific increase
tumor growth (CT26 colon cancer tumors; AVS100 100 mg/kg daily gavage, anti-PD1 10 mg/kg i.p. every 4 days): significant tumor growth inhibition
responders with tumor volume lower than 300 mm^3 (CT26 colon cancer tumors; CT26 colon cancer): 20%
M1-like TAMs (CT26 colon cancer tumors; treatment alone): significant increase
M2-like TAMs (CT26 colon cancer tumors; treatment alone): significant reduction
area under the curve (AUC) levels [5]: higher
bioavailability [5]: higher
maximum concentrations in blood (Cmax) [5]: higher
Arg1 levels in M2 polarizing conditions ([6]; Western blot): reduced
iNOS levels under M1 polarizing conditions ([6]; Western blot): partial reduction
Il1b levels in M1 cells ([6]; qPCR): increased
M2 markers Arg1, Fizz1, and Tgfb in M2 cells ([6]; qPCR): inhibition
Nos2 levels ([6]; qPCR): did not affect
inhibition in the hERG assay (hERG): no significant inhibition
mutagenicity or toxicity in GLP studies [7]: no mutagenicity, toxicity, or adverse effects
acetyl-α-tubulin levels ([8]; BMA31A7, AVS100 10 uM): increased
Arg1 upregulation under M2 polarizing conditions ([8]; IL-4 plus IL-13, AVS100 10 uM): blocked
alterations of CNS behavior, pulmonary or cardiovascular function [9]: no alterations
increase of iNOS levels under M1 polarizing conditions ([10]; LPS plus IFNγ, AVS100 10 uM): did not affect
acetyl-α-tubulin levels ([10]; Raw264.7, AVS100 10 uM): increased

CCCCN(Cc1ccc(C(=O)NO)cc1)C(=O)Nc1ccccc1 [Nexturastat-A]
antitumoral effect in melanoma tumor models (melanoma tumor models): antitumoral effect

O=C(CCCCCCNC(=O)c1cnc(N(c2ccccc2)c2ccccc2)nc1)NO [ACY-1215]
specificity over HDAC6 than other HDAC isoforms (HDAC6): ten-fold

O=C(NO)c1ccc(CN2CCCc3cc(Cl)ccc32)cc1 [SW100]
AMES test (in words) [11]: AMES-negative
